Laboratory results published in paper PMC12040169 (PLOS Biology, 2025).

Test: in vitro
Details: human, hela cells, % viability

| Compound | viability at 28.5 h, 10 µM |
| --- | --- |
| CCN1CCN(c2ccc(NC(=O)Cc3cn4ccsc4n3)cc2)CC1 [CBK305892] | 81.3% |
| CC1CCc2c(sc3ncnc(OCC(=O)NC4CCCC4)c23)C1 (centres unmarked) [CBK305893] | 83.1% |
| Cc1cc(OCC(=O)N2CCN(c3ccccc3F)CC2)no1 [CBK305898] | 87.1% |
| Cc1cc(NC(=O)N2CCN(c3ncccc3C#N)CC2)no1 [CBK305901] | 80.5% |
| Cc1nc(NC(=O)CN2CCN(c3cccc(Cl)c3)CC2)sc1C [CBK305902] | 88.5% |
| Cn1cccc1C(=O)OCC(=O)N1CCCCC1 [CBK305903] | 99.5% |
| COc1ccc(CNC(=O)c2sccc2S(=O)(=O)N2CCCCC2)cc1 [CBK305904] | 101% |
| Cc1oc(NC(=O)CN2CCN(c3cccc(Cl)c3)CC2)c(C#N)c1C [CBK305906] | 82.5% |
| Cc1oc(NC(=O)CN2CCN(c3ccc(F)cc3)CC2)c(C#N)c1C [CBK305907] | 86.7% |
| Cc1oc(NC(=O)CN2CCN(c3ccccc3Cl)CC2)c(C#N)c1C [CBK305908] | 84.7% |
| COc1ccc(-c2csc(N3CCN(C)CC3)n2)cc1F [CBK305910] | 88.7% |
| CCCn1c(CN2CCOCC2)nc2c1c(=O)n(C)c(=O)n2C [CBK305911] | 103% |
| CC(C)Cn1c(CN2CCOCC2)nc2c1c(=O)n(C)c(=O)n2C [CBK305913] | 91.3% |
| Cc1cccc(OCC(=O)Nc2ncccc2OCCCC#N)c1 [CBK305918] | 90.5% |
| O=C(CN1CCCN(c2nccs2)CC1)Nc1cc(Cl)ccc1Cl [CBK305921] | 99.7% |
| Cc1c(C(=O)N2CCCC2C(N)=O)nnn1Cc1ccc(F)cc1F (centres unmarked) [CBK305925] | 94.5% |
| FC(F)(F)c1nnc2ccc(N3CCN(Cc4ccsc4)CC3)nn12 [CBK305930] | 88.6% |
| COc1ccc(Cl)cc1CN(C)C(=O)c1ccc[nH]c1=O [CBK305933] | 90.6% |
| CCC1CCC2(CC1)NC(=O)N(CC(=O)Nc1nccs1)C2=O (centres unmarked) [CBK305936] | 95.9% |
| Cc1noc(C)c1CCC(=O)NCc1cccc(C#N)c1 [CBK305938] | 108% |
| Cc1ccc(-c2nn(CCC#N)cc2C(=O)N2CCOCC2)cc1C [CBK305940] | 96.7% |
| CCN(CC)C(=O)c1cn(CCC#N)nc1-c1cccc(OC)c1 [CBK305941] | 92.6% |
| CCCC(=O)Nc1ccc(OCc2nnc(C)o2)c(C(C)=O)c1 [CBK305943] | 92.9% |

| Compound | viability at 28.5 h, 10 µM |
| --- | --- |
| CC1CCc2c(sc3ncnc(NCCCN4CCCCCC4=O)c23)C1 (centres unmarked) [CBK305947] | 85.4% |
| O=C(Cn1cccnc1=O)NCc1cccnc1OCC(F)(F)F [CBK305949] | 109% |
| Cc1cc(Br)ccc1C(=O)N1CC(C(N)=O)CCC1C (centres unmarked) [CBK305954] | 83.2% |
| CN(C)C(=O)c1cccc(CNc2ncnc3c2cnn3CCC#N)c1 [CBK305955] | 88.3% |
| CC1CN(c2ccc(CNc3ncccc3C#N)cn2)CCO1 (centres unmarked) [CBK305957] | 99.5% |
| CC(Sc1nc2ccc(F)cc2c(=O)[nH]1)C(=O)N1CCOCC1 (centres unmarked) [CBK305958] | 108% |
| OCCn1ncc2c(Nc3cccc(Cn4cncn4)c3)ncnc21 [CBK305965] | 115% |
| CCc1ccc(NC(=O)CN(CCO)Cc2cc(Br)ccc2F)cc1 [CBK305968] | 84.8% |
| COc1ccc(C)cc1-n1ccc(C(=O)N2CCSCC2)n1 [CBK305972] | 96.5% |
| Cc1ccc(-c2nn(CCC#N)cc2C(=O)N2CCCC2)cc1C [CBK305974] | 86.8% |
| CC(=O)N(C)Cc1cccc(Nc2ncnc3c2cnn3CCO)c1 [CBK305979] | 96.1% |
| O=C(NCCN1CCCCC1)C1CC(=O)N(CCc2ccccc2)C1 (centres unmarked) [CBK305986] | 91.7% |
| CS(=O)(=O)N1CCC(Nc2nc(-c3cccs3)nc3ccccc23)CC1 [CBK305987] | 87.3% |
| COC(=O)C(C)(C)NC(=O)c1ccn(-c2cc(C)ccc2OC)n1 [CBK305989] | 107% |
| O=C(CN1CCC(NC(=O)c2cccs2)CC1)Nc1ccc(F)c(F)c1 [CBK305991] | 83.8% |
| CCN(CC(C)C#N)C(=O)c1cc2ccccc2oc1=O (centres unmarked) [CBK305992] | 87.8% |
| CCOc1ccc2c(c1)CN(CC(=O)Nc1cc(C)no1)CC2 [CBK305993] | 92.9% |
| CC(C)Cc1noc(CN2CCC(C(=O)NCc3ccco3)CC2)n1 [CBK305995] | 107% |
| CC(=O)Nc1cccc(-n2nnnc2SC2CCCC2)c1 [CBK305996] | 95.3% |
| O=C(CN1CCC(NC(=O)c2cccs2)CC1)Nc1cc(F)ccc1F [CBK305997] | 102% |
| Cc1noc(C)c1CN1CCC(c2ccccc2)CC1 [CBK306001] | 89.9% |
| N#Cc1ccc(OCC(=O)Nc2cccnc2-n2cncn2)cc1 [CBK306004] | 85.9% |
| CCOC(=O)CN1CCN(c2cc(C#N)ccn2)CC1 [CBK306006] | 89.3% |

| Compound | viability at 28.5 h, 10 µM |
| --- | --- |
| CCOC(=O)c1cc2cc(NC(=O)N(CCO)C3CC3)ccc2s1 [CBK306007] | 87.6% |
| Cc1nnc(CCNC(=O)c2cccc(C#N)c2)n1C [CBK306017] | 85.4% |
| Cc1cc(N2CCOC(c3nc(C)n[nH]3)C2)c2ccc(F)c(F)c2n1 (centres unmarked) [CBK306018] | 92.2% |
| CCN(CCO)C(=O)C(C)Oc1cc(C)ccc1Cl (centres unmarked) [CBK306019] | 86.6% |
| CCNS(=O)(=O)c1ccc2c(c1)N(Cc1cccnc1C)CC2 [CBK306020] | 92.1% |
| CCOc1ccc(NC(=O)CCc2ncc(C(C)(C)C)o2)c(C)c1 [CBK306021] | 104% |
| CSc1nnc(CCCNC(=O)c2cccc(C#N)c2)n1CC(C)C [CBK306023] | 108% |
| CC(=O)C(C)n1c(=O)c2c(nc3oc(C(C)(C)C)cn32)n(C)c1=O (centres unmarked) [CBK306027] | 91.1% |
| COC(=O)Cn1c(=O)c2c(nc3oc(C(C)(C)C)cn32)n(C)c1=O [CBK306029] | 84.5% |
| Cn1ccc(NC(=O)c2cccc(S(=O)(=O)N3CCCC3)c2)n1 [CBK306032] | 104% |
| COC(=O)CCn1c(=O)c2c(nc3oc(C)c(C)n32)n(C)c1=O [CBK306033] | 109% |
| CCn1c(SCC(=O)NC(=O)NC2CCCCC2)nc2ccccc21 [CBK306037] | 93.6% |
| O=C1CN(Cc2nc(-c3cccc(C(F)(F)F)c3)no2)CCN1 [CBK306038] | 92.9% |
| CC(=O)Nc1cccc(C(=O)OCC(=O)c2cccs2)c1 [CBK306040] | 105% |
| COC(=O)c1ccc2c(=O)n(CC3CCCO3)c(SCCO)nc2c1 (centres unmarked) [CBK306041] | 109% |
| COC(=O)c1ccc2c(=O)n(CC(C)C)c(SC)nc2c1 [CBK306042] | 81.3% |
| Cc1nn(-c2ccccc2)c(Cl)c1CN1C(=O)NC2(CCCCC2)C1=O [CBK306043] | 83.8% |
| COC(=O)c1sc2[nH]c(CN(C)Cc3ccco3)nc(=O)c2c1C [CBK306047] | 82.6% |
| O=C(NCC(=O)N1CCc2ccccc2C1)C1CCCCC1 [CBK306049] | 107% |
| Cc1cc(C(=O)CSc2nnc(N3CCCC3)n2C2CC2)c(C)n1C [CBK306051] | 65.1% |
| Cc1nn(C)c(C)c1NC(=O)CN1CCN(c2cccc(Cl)c2)CC1 [CBK306052] | 81.1% |
| CC1CCCN(Cc2nc3c([nH]2)c(=O)n(C)c(=O)n3C)C1 (centres unmarked) [CBK306054] | 88.7% |
| Cc1nc(CN2CCN(c3ccc4nnnn4n3)CC2)cs1 [CBK306056] | 79.3% |

| Compound | viability at 28.5 h, 10 µM |
| --- | --- |
| Cc1nn(C)c(C)c1NC(=O)CN1CCN(c2ccccc2Cl)CC1 [CBK306058] | 82.6% |
| CC(=O)C(C)n1c(CN2CCCC(C)C2)nc2c1c(=O)n(C)c(=O)n2C (centres unmarked) [CBK306061] | 88.2% |
| COCCn1c(CN2CCCC(C)C2)nc2c1c(=O)n(C)c(=O)n2C (centres unmarked) [CBK306063] | 108% |
| Cc1cc(C(=O)N2CCc3c(sc4ncnc(N)c34)C2)on1 [CBK306067] | 85.1% |
| O=C(CCc1nc2sc3c(c2c(=O)[nH]1)CCCC3)N1CCCC1 [CBK306069] | 90.8% |
| CCN(CC(=O)NCc1ccc(F)cc1)S(=O)(=O)c1c(C)n[nH]c1C [CBK306074] | 93.3% |
| CN(C(=O)CCc1nc2sc3c(c2c(=O)[nH]1)CCCC3)C1CCCCC1 [CBK306075] | 88.2% |
| COc1ccc(CC(=O)NC(CCSC)c2nnc3ccccn23)cc1 (centres unmarked) [CBK306077] | 96% |
| CC1CCc2c(sc3ncnc(NCC(=O)N4CCCC4)c23)C1 (centres unmarked) [CBK306079] | 103% |
| Cc1cc(NC(=O)Cc2cn3ccsc3n2)ccc1N1CCCC1 [CBK306080] | 79.8% |
| CS(=O)(=O)NC1CCN(S(=O)(=O)c2cc(Cl)cc(Cl)c2)CC1 [CBK306082] | 84.3% |
| Cc1nc2nc(N)nn2c(C)c1CCC(=O)OCc1cccc(C#N)c1 [CBK306083] | 88.1% |
| CCOCCCn1c(SC(C)C#N)nc2ccc(Br)cc2c1=O (centres unmarked) [CBK306084] | 85.7% |
| CC1CCCCN1C(=O)CCc1nc2sc3c(c2c(=O)[nH]1)CCCC3 (centres unmarked) [CBK306086] | 112% |
| CCCC(=O)Nc1ccc(-c2csc(N3CCCC3=O)n2)cc1 [CBK306088] | 82% |
| CC(=O)c1cccc(NC(=O)CCn2[nH]c(=O)ccc2=O)c1 [CBK306094] | 91.4% |
| O=C(c1ccccc1)N1CCN(Cc2cc(=O)n3ccsc3n2)CC1 [CBK306095] | 94.4% |
| O=C(c1ccccc1O)N1CCN(Cc2cc(=O)n3ccsc3n2)CC1 [CBK306096] | 90.2% |
| CCc1nnc(SCC(=O)Nc2ccc(CN3CCOCC3)cc2)[nH]1 [CBK306097] | 84.7% |
| O=C(c1ccc(O)nc1)N1CCN(Cc2cc(=O)n3ccsc3n2)CC1 [CBK306098] | 86.3% |
| COCCNC(=O)c1cc(C2CC2)nc2c1cnn2C(C)C [CBK306099] | 101% |
| CCN1CCC(NC(=O)CSc2nc3ccccc3n2CCOC)CC1 [CBK306100] | 118% |
| COCCN1CCN(c2nc(-c3ccncc3)nc3c2CCC3)CC1 [CBK306101] | 95.7% |
